Like-named read-outs stand apart in the source and are kept apart here.
Legend:
[1] = test system: cell layer of cells differentiated from KhES-1 cells; settings: human, 120 min
Method: (§1) After two days from the seeding to the cell culture insert, the electric resistance (Ω) of the cell layer formed on the cell culture insert was measured by using a Millicell ERS-2 (Millipore), and from the obtained measurement value, the electric resistance of the blank in which cells are not seeded was subtracted, and the resultant value was multiplied with the area of the membrane filter (cm^2) to determine a transepithelial electric resistance (TEER, Ω·cm^2).
(§2) The culture medium in the insert and in the multiple well plate was replaced by Hanks' Balanced Salt Solution (HBSS) (no phenol red, Life Technologies), and incubated for 30 minutes to 45 minutes at 37° C. 5% CO2. The culture medium in the insert (apical side) is replaced by HBSS containing a test substance, and cultured at 37° C. under stirring at 300 rpm.
(§3) After 120 minutes from addition of the test substance, 100 μl of HBSS containing the permeated test substance was collected from inside the multiple well plate, and the same amount of HBSS was added to the collected HBSS. By quantifying the test substance in the culture medium in the multiple well plate by LC-MS, the permeability of the test substance in the cell layer was evaluated. A value obtained by dividing the permeation amount of each test substance by the permeation amount of antipyrine is shown as an in vitro relative permeation amount in Table 4.

[2] = test system: cell layer of cells differentiated from 201B7 cells; settings: human, 120 min
Method: (§4) The culture medium in the insert and in the multiple well plate was replaced by Hanks' Balanced Salt Solution (HBSS) (no phenol red, Life Technologies), and incubated for 30 minutes to 45 minutes at 37° C. […] The culture medium in the insert (apical side) is replaced by HBSS containing a test substance, and cultured at 37° C. under stirring at 300 rpm.
(§5) After 120 minutes from addition of the test substance, 100 μl of HBSS containing the test substance was collected from inside the multiple well plate, and the same amount of HBSS was added to the collected HBSS. By quantifying the test substance in the culture medium in the multiple well plate by LC-MS, the permeability of the test substance in the cell layer was evaluated. A value obtained by dividing the permeation amount of each test substance by the permeation amount of antipyrine is shown as an in vitro relative permeation amount in Table 5.

term placenta = settings: cited from earlier work
[3] = test system: GCM1-GFP knock-in human ES cells; experiment: Percentage of GFP positive cells (GCM1 gene expression) after differentiation culturing, Example 2; assay type: cell-based; settings: day 6
Method: S26948, GW 1929, CGP 7930 and SR 11237 were dissolved in DMSO so that they were respectively 1 mM, and retinoic acid was dissolved in DMSO so that it was 10 mM, and each DMSO solution was added to Basal differentiation medium A.
On day 6 of the culturing using the differentiation medium, cells were washed twice with PBS (Invitrogen), and fixed with 4% paraformaldehyde (Wako) for 15 minutes. After subjecting the cells to a membrane permeabilizing treatment for 5 minutes by using PBS supplemented with 0.3% Triton X-100 (Wako), the cells were washed three times with PBS. Then after blocking the cells for 1 hour to 2 hours with 3% Bovine Serum Albumin (BSA, Sigma-Aldrich), the cells were immunostained by using 5 μg/ml chicken anti-GFP antibody (Abcam), 2 μg/ml goat anti-chicken IgG antibody Alexa 488 (Life technologies) and 1 μg/ml Hoechst 33342 (DOJINDO). For the obtained stained sample, the percentage of the GFP positive cells indicating expression of GCM1 gene was quantified by using a fully automatic image analyzer Arrayscan (Thermo Scientific).

KhES-1 cells = experiment: Syncytin gene mRNA by real-time PCR after differentiation culturing, Example 3; assay type: cell-based, human; settings: single agent added to Basal differentiation medium B (0.1 μM S26948, 10 μM GW 1929, 0.1 μM CGP 7930, 10 nM SR 11237 or 1 nM retinoic acid), day 5; in comparison with Control
Method: According to the method described in (1) in Example 2, KhES-1 cells were maintenance cultured, and then subjected to the MEF removing operation. […] S26948, GW 1929, CGP 7930 and SR 11237 were dissolved in DMSO so that they were respectively 100 mM, and retinoic acid was dissolved in DMSO so that it was 10 mM, and each DMSO solution was added to Basal differentiation medium B.
On day 5 of the culturing of the culture using the differentiation medium, total RNA was extracted from cells by using RNeasy Micro Kit (QIAGEN). The obtained total RNA was reverse transcribed by using SuperScript III (Invitrogen), and by real-time PCR using the obtained DNA as a template, TaqMan probe (Applied biosystems) and TaqMan Fast advanced master mix (Applied biosystems), the expression amount of Syncytin gene which is a marker gene of syncytiotrophoblast was examined. For the cells obtained in each culturing, the mRNA amount of Syncytin gene and the mRNA amount of GAPDH gene which is a house keeping gene were determined by real-time PCR. The value obtained by dividing the mRNA amount of Syncytin gene by the mRNA amount of GAPDH gene is defined as a correction value of mRNA amount of Syncytin gene, and taking the Syncytin gene mRNA amount correction value in cells cultured in Basal differentiation medium B (Control) as 1, a Syncytin gene mRNA amount correction value in cells cultured in each of other culture media was shown as a relative expression amount. The operation from the cell culturing to measurement of mRNA amount was repeated three times. In FIG. 2, a standard error of relative expression amount is indicated by an error bar. The relative expression amount having a statistically significant difference with respect to the relative expression amount of Control is marked with asterisks (** means a P value of 0.001 or more and less than 0.01, and *** means a P value of less than 0.001). In comparison with the cells cultured in Basal differentiation medium B (Control), the relative expression amount of Syncytin gene increased in cells that were cultured in a differentiation medium supplemented with either of S26948 (2-1) or GW 1929 (2-2) that is a PPARγ agonist, CGP 7930 (2-3) that is a GABABR positive allosteric modulator, SR 11237 (2-4) that is an RXR agonist or retinoic acid (2-5) that is an RAR agonist.

[4] = test system: cell layer of cells differentiated from KhES-1 cells; experiment: Cell layer permeability test on cell culture insert, cells differentiated from human ES cells, Example 13; settings: permeation amount after 120 minutes divided by that of antipyrine; apical side dosing, HBSS, LC-MS; cells from KhES-1
Method: as §1, §2, §3

[5] = test system: cell layer of cells differentiated from 201B7 cells; experiment: Cell layer permeability test on cell culture insert, cells differentiated from human iPS cells, Example 15; settings: permeation amount after 120 minutes divided by that of antipyrine; apical side dosing, HBSS, LC-MS; cells from iPS line 201B7
Method: as §4, §5

[6] = test system: GCM1-GFP knock-in human ES cells; experiment: Percentage of GFP positive cells at different retinoic acid concentrations, Example 9; assay type: cell-based; settings: day 5
[7] = 1 μM added to Basal differentiation medium A (3 ng/ml BMP4), in comparison with Control A (0.1% DMSO)
[8] = Table 4, excerpted from Li, H. et al. Arch. Toxicol. 2013
[9] = Table 5, excerpted from Li, H. et al. Arch. Toxicol. 2013

Row | Structure (SMILES) | In vitro relative permeation amount [1] | increase in the percentage of the GFP positive cells [3, 7] | relative expression amount of Syncytin gene (KhES-1 cells) | Ex vivo relative permeation amount (literature value) (term placenta; [8]) | other results
1 | Cc1cc(=O)n(-c2ccccc2)n1C [Antipyrine] | 1 | – | – | – | In vitro relative permeation amount [2]: 1; Ex vivo relative permeation amount (literature value) (term placenta): 1
2 | CC(C)(CO)Cc1cc(C(C)(C)C)c(O)c(C(C)(C)C)c1 [CGP 7930] | – | about 20% | increased | – | –
3 | Cn1c(=O)c2c(ncn2C)n(C)c1=O [Caffeine] | 1.4 | – | – | 1.5 | In vitro relative permeation amount [2]: 1.1; Ex vivo relative permeation amount (literature value) (term placenta; [9]): 1.5
4 | C[C@H]1O[C@@H](O[C@H]2[C@@H](O)C[C@H](O[C@H]3[C@@H](O)C[C@H](O[C@H]4CC[C@@]5(C)[C@H](CC[C@@H]6[C@@H]5C[C@@H](O)[C@]5(C)[C@@H](C7=CC(=O)OC7)CC[C@]65O)C4)O[C@@H]3C)O[C@@H]2C)C[C@H](O)[C@@H]1O [Digoxin] | 0.24 | – | – | 0.13 | –
5 | CN(CCOc1ccc(C[C@H](Nc2ccccc2C(=O)c2ccccc2)C(=O)O)cc1)c1ccccn1 [GW 1929] | – | about 20% | increased | – | –
6 | COc1ccc2c(c1)c(CC(=O)O)c(C)n2C(=O)c1ccc(Cl)cc1 [Indomethacin] | – | – | – | 0.66 | Ex vivo relative permeation amount (literature value) (term placenta; [9]): 0.66; In vitro relative permeation amount [4]: 0.72; In vitro relative permeation amount [5]: 0.62
7 | COC(=O)C(Cc1ccc(OCCn2c(=O)sc3cc(C(=O)c4ccccc4)ccc32)cc1)C(=O)OC [S26948] | – | about 20% | increased | – | –
8 | CC1(C)CCC(C)(C)c2cc(C3(c4ccc(C(=O)O)cc4)OCCO3)ccc21 [SR 11237] | – | about 20% | increased | – | –
9 | CC1=C(/C=C/C(C)=C/C=C/C(C)=C/C(=O)O)C(C)(C)CCC1 [retinoic acid] | – | – | – | – | increase in the percentage of the GFP positive cells ([3]; 1 nM retinoic acid (Table 1 prints 1 μM) in Basal differentiation medium A, compared with Control B (no retinoic acid)): about 6%; increase in the percentage of GFP positive cells ([6]; 1 nM or 10 nM retinoic acid in Basal differentiation medium B, compared with Control without retinoic acid): about 10%; decrease in the percentage of GFP positive cells ([6]; 100 nM or more retinoic acid in Basal differentiation medium B, compared with Control): ≥ 10%
